≈ marks a conversion by molar mass, not a printed value. Read-outs that look alike come from different tables or passages of the source.
Legend:
[1] = system: MRSA ATCC BAA 1556 (USA300); assay: In-house broth microdilution MIC screening; type: cell-based, Staphylococcus aureus
[2] = system: Enterococcus faecalis; assay: Expanded panel broth microdilution MIC/MBC; type: cell-based
[3] = system: Cutibacterium acnes; assay: Expanded panel broth microdilution MIC; type: cell-based
[4] = system: Streptococcus pneumoniae; assay: Expanded panel broth microdilution MIC/MBC; type: cell-based
[5] = system: Clostridium. perfringens; assay: microbe, parasite or virus in culture; type: cell-based
[6] = system: Streptococcus oralis; assay: Expanded panel broth microdilution MIC; type: cell-based
[7] = Single-dose nebulized nose-only inhalation PK in healthy rats; type: in vivo, rat; details: male, Sprague Dawley, rat, in vivo
How it was run: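 Ten or eleven rats per cohort dosed once by nebulized nose-only inhalation, delivered dose estimated from 5 min aerosol filter sampling. Lungs and plasma collected from immediately postdose (~30 min) to 168 h; drug quantified by LC-MS/MS after protein precipitation. PK by noncompartmental analysis, linear up/log down.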

[8] = system: Staphylococcus hominis; assay: Expanded panel broth microdilution MIC; type: cell-based
[9] = system: MSSA ATCC 29213; assay: In-house broth microdilution MIC screening; type: cell-based; details: Staphylococcus aureus; broth microdilution; read-out: MIC Value, MSSA ATCC 29213
[10] = system: Streptococcus mitis; assay: Expanded panel broth microdilution MIC/MBC; type: cell-based; details: for MIC: Streptococcus mitis
[11] = system: Streptococcus pyogenes; assay: Expanded panel broth microdilution MIC/MBC; type: cell-based; details: for MIC: Streptococcus pyogenes
[12] = system: Streptococcus agalactiae; assay: Expanded panel broth microdilution MIC/MBC; type: cell-based; details: for MIC: Streptococcus agalactiae
[13] = system: MRSA ATCC BAA 1556 (USA300) biofilm; assay: MRSA biofilm killing, MBEC assay system, TSB with 1% human plasma; details: MBEC

CCCCCCCCCCNC(=O)CNC1(C)CC(OC2C(Oc3c4cc5cc3Oc3ccc(cc3Cl)C(O)C3NC(=O)C(NC(=O)C5NC(=O)C(CC(N)=O)NC(=O)C(NC(=O)C(CC(C)C)NC)C(O)c5ccc(c(Cl)c5)O4)c4ccc(O)c(c4)-c4c(O)cc(O)cc4C(C(=O)O)NC3=O)OC(CO)C(O)C2O)OC(C)C1O (stereo not shown) [RV94]
MIC potency, fold more potent than vancomycin ([1]; MRSA and MSSA isolates of Table 1): approximately 30 fold
MIC ([1]; Staphylococcus aureus, broth microdilution, read-out: MIC Value, MRSA ATCC BAA 1556): 31 ng/mL (≈ 18.8 nM)
MIC:MBC ([2]; E. faecalis VSE, MBC on one organism): >8
MIC:MBC ([2]; E. faecalis VanA VRE): >8
MIC ([2]; E. faecalis VanA VRE, 1 isolate): 30 ng/mL (≈ 18.2 nM)
MIC ([2]; Enterococcus faecalis, ATCC29212, E. faecalis ATCC 29212, VSE, read-out: MIC): 30 ng/mL (≈ 18.2 nM)
MIC ([2]; Enterococcus faecalis, E. faecalis MMX 1086, VanA VRE, read-out: MIC): 30 ng/mL (≈ 18.2 nM)
MIC ([2]; Enterococcus faecalis, E. faecalis MMX 4176, VSE, read-out: MIC): 30 ng/mL (≈ 18.2 nM)
MIC ([2]; Enterococcus faecalis, E. faecalis VSE, 2 isolates, read-out: MIC (median)): 30 ng/mL (≈ 18.2 nM)
MIC ([3]; ATCC6919, P. acnes ATCC 6919, read-out: MIC): 8 ng/mL (≈ 4.86 nM)
MIC ([3]; ATCC11827, P. acnes ATCC 11827, read-out: MIC): 8 ng/mL (≈ 4.86 nM)
MIC ([3]; C. acnes, 2 isolates, read-out: MIC (median)): 8 ng/mL (≈ 4.86 nM)
MIC:MBC ([4]; S. pneumoniae PISP, MBC on one organism): 4
MIC ([4]; S. pneumoniae PRSP, 1 isolate): 8 ng/mL (≈ 4.86 nM)
MIC ([4]; Streptococcus pneumoniae, ATCC49619, S. pneumoniae ATCC 49619, PISP, read-out: MIC): 8 ng/mL (≈ 4.86 nM)
MIC ([4]; Streptococcus pneumoniae, S. pneumoniae MMX 432, PRSP, read-out: MIC): 8 ng/mL (≈ 4.86 nM)
MIC ([4]; Streptococcus pneumoniae, S. pneumoniae MMX 747, PISP, read-out: MIC): 4 ng/mL (≈ 2.43 nM)
MIC ([4]; Streptococcus pneumoniae, S. pneumoniae PISP, 2 isolates, read-out: MIC (median)): 6 ng/mL (≈ 3.64 nM)
MIC [5]: 8 ng/mL (≈ 4.86 nM)
MIC ([5]; ATCC13124): 8 ng/mL (≈ 4.86 nM)
MIC ([6]; S. oralis MGS, 1 isolate): 15 ng/mL (≈ 9.11 nM)
MIC ([6]; Streptococcus oralis, S. oralis (MGS) MMX 5821, read-out: MIC): 15 ng/mL (≈ 9.11 nM)
Pulmonary dose [7]: 1.10 mg/kg
Drug lung level at 120 h ([7]; 120 h): 45%
Primary hydrolysis byproduct lung level at 120 h ([7]; 120 h): 0.1%
Kp ([7]; inhaled or intranasal): 1870
Lung AUC0-∞ ([7]; inhaled or intranasal): 40671 µg·h/g
Lung Cmax ([7]; inhaled or intranasal): 262 µg/g
Lung t1/2 ([7]; inhaled or intranasal): 108 h
Plasma Cmax ([7]; inhaled or intranasal): 140 ng/mL
Hydrolysis product RV101 relative to parent concentration at lung Cmax ([7]; inhaled or intranasal, 120 h): 0.1%
MIC ([8]; ATCC27844, S. hominis ATCC 27844, read-out: MIC): 30 ng/mL (≈ 18.2 nM)
MIC ([8]; S. hominis, 1 isolate, read-out: MIC): 30 ng/mL (≈ 18.2 nM)
MIC [9]: 31 ng/mL (≈ 18.8 nM)
MIC:MBC ([10]; S. mitis MGS, MBC on one organism): 1
MIC ([10]; ATCC49456, S. mitis (MGS) ATCC 49456, read-out: MIC): 8 ng/mL (≈ 4.86 nM)
MIC ([10]; S. mitis (MGS) MMX 5798, read-out: MIC): 8 ng/mL (≈ 4.86 nM)
MIC ([10]; S. mitis MGS, 2 isolates, read-out: MIC (median)): 8 ng/mL (≈ 4.86 nM)
MIC:MBC ([11]; S. pyogenes ermR): 1
MIC ([11]; ATCC19615, S. pyogenes ATCC 19615, read-out: MIC): 15 ng/mL (≈ 9.11 nM)
MIC ([11]; S. pyogenes MMX 946, ermR, read-out: MIC): 8 ng/mL (≈ 4.86 nM)
MIC ([11]; S. pyogenes MMX 8778, read-out: MIC): 8 ng/mL (≈ 4.86 nM)
MIC ([11]; S. pyogenes ermR, 1 isolate, read-out: MIC): 8 ng/mL (≈ 4.86 nM)
MIC ([11]; S. pyogenes, 2 isolates, read-out: MIC (median)): 12 ng/mL (≈ 7.29 nM)
MIC:MBC ([12]; S. agalactiae, MBC on one organism): 4
MIC ([12]; ATCC13813, S. agalactiae ATCC 13813, read-out: MIC): 30 ng/mL (≈ 18.2 nM)
MIC ([12]; S. agalactiae MMX 4088, read-out: MIC): 8 ng/mL (≈ 4.86 nM)
MIC ([12]; S. agalactiae MMX 4115, ermR, read-out: MIC): 4 ng/mL (≈ 2.43 nM)
MIC ([12]; S. agalactiae ermR, 1 isolate, read-out: MIC): 4 ng/mL (≈ 2.43 nM)
MIC ([12]; S. agalactiae, 2 isolates, read-out: MIC (median)): 20 ng/mL (≈ 12.1 nM)
Biofilm activity, fold more potent than vancomycin at the same dose ([13]; 16 μg/ml): 2 fold
Concentrations with statistically significant reduction versus control biofilm ([13]; two-way ANOVA, Bonferroni): ≥ 2 µg/mL

Reference: paper PMC8373216, “Development and Preclinical Evaluation of New Inhaled Lipoglycopeptides for the Treatment of Persistent Pulmonary Methicillin-Resistant Staphylococcus aureus Infections” (Antimicrobial Agents and Chemotherapy, 2021)
